Test results from article PMC4698308, “A new amino acid substitution (Ala-205-Phe) in acetolactate synthase (ALS) confers broad spectrum resistance to ALS-inhibiting herbicides” (Planta, 2015).
Read-outs that look alike come from different tables or passages of the source.

Assays:
[1] = test system: recombinant Arabidopsis thaliana ALS variant A205F; format: biochemical; details: IC50 mutant divided by IC50 sensitive ALS; max inhibitor concentration 1.00 × 10^−04 M
Method: (§1) Effects of SNPs identified in sequencing analysis on ALS activity were studied using A. thaliana. The ALS gene from A. thaliana and derivatives thereof were de novo synthesized and subcloned into pET-24d(+) (Life Technologies. Grand Island, NY, USA) using NcoI and XhoI restriction sites. Protein constructs contained an 85 amino acid N-terminal deletion (chloroplast transit peptide) and the addition of an N-terminal Hexa-histidine tag to facilitate purification.
(§2) Lysis was performed by at least two passes through a fluidizer, followed by centrifuging at 80000×g for 30 min at 4 °C. […] Fractions containing ALS protein were pooled and stored at −20 °C.
(§3) Inhibitors, purchased from Sigma as Pestanal standards (Sigma-Aldrich, Deisenhofen, Germany), were dissolved in DMSO and added to the reaction mixture. Inhibitors evaluated included imidazolinone, sulfonylurea, triazolopyrimidines, sulfonylamino-carbonyl- triazolinones, and pyrimidinyl (thio) benzoate herbicides. The reaction mixture was incubated at 30 °C for 60 min and stopped with 70 µl of H2SO4 (3 M). The reaction was then heated to 56 °C for 15 min to convert acetolactate into acetoin. […] For each inhibitor, resistance factors were calculated by dividing IC50 values for mutant and sensitive ALS.

[2] = test system: recombinant Arabidopsis thaliana ALS variant W574L; format: biochemical; details: IC50 mutant divided by IC50 sensitive ALS; max inhibitor concentration 1.00 × 10^−04 M
Method: as §1, §2, §3

[3] = test system: recombinant Arabidopsis thaliana ALS variant A205V; format: biochemical; details: IC50 mutant divided by IC50 sensitive ALS; max inhibitor concentration 1.00 × 10^−04 M
Method: as §1, §2, §3

[4] = molecular target: T1, recombinant Arabidopsis thaliana ALS wild-type enzyme (WT—sensitive) (Arabidopsis thaliana, UniProt P17597); assay: biochemical
T1 construct: Protein constructs contained an 85 amino acid N-terminal deletion (chloroplast transit peptide); Hexa-histidine tag (N); made in house
T1 sequence (P17597 86-670): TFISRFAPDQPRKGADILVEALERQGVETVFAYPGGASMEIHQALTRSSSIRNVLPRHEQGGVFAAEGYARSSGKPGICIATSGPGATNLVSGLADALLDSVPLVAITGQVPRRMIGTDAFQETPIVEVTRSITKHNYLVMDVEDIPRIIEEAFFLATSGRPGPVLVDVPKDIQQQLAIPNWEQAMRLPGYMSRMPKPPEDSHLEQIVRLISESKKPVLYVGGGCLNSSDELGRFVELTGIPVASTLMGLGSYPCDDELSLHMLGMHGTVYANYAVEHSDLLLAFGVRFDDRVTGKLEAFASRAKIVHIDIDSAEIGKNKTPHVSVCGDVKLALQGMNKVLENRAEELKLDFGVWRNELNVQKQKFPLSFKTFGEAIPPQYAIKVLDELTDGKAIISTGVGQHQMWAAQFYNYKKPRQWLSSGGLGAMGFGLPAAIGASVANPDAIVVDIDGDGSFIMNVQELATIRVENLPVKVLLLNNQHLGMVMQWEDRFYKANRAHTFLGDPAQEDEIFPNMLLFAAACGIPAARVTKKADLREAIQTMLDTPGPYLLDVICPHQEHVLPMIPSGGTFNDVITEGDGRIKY
Method: as §1, §2, §3

[5] = test system: annual bluegrass (Poa annua L.); assay: Whole plant confirmation of target-site resistance (visual control and dry biomass 28 days after treatment); format: in vivo
Method: Progeny of all POAAN-R3 plants subjected to genetic sequencing (RP1–RP8) were surface seeded into separate 10.2 × 10.2 cm greenhouse pots (Dillen Products/Myers Industries, Inc. Middlefield, OH, USA.) filled with a peat moss growing medium (ProMix BX Mycorrhizae. Premier Tech Horticulture, Quakertown, PA, USA) on 5 January 2015. The susceptible annual bluegrass population (S) included in our sequencing analysis was also seeded in the same fashion.
After seeding, pots were placed inside a growth chamber (Conviron A1000. Controlled Environments Inc, Hendersonville, NC) configured to provide 14 h day at 19 °C and a 10 h night at 10 °C. Light intensity inside the chamber averaged 296 μmol m^−2 s^−1. Irrigation was applied to each pot daily using distilled water and a misting nozzle. Annual bluegrass emergence was first noted on 16 January 2015. Plants remained inside the growth chamber until 26 January 2015. On this date, seedlings of each plant (RP1–RP8, S) were transplanted into individual 164 cm^3 plastic conical containers (SC10 Super Cell Cone-tainer. Stuewe and Sons. Tangent, OR 97389) filled with Sequatchie silt loam (fine-loamy, siliceous, semiactive, thermic humic Hapludult) measuring 6.2 in soil pH and 2.1 % in organic matter content. Transplants were replicated such that 32 plastic conical containers were created for each annual bluegrass plant analyzed in previous experiments (RP1–RP8, S). Immediately after transplanting, plastic conical containers were placed in a glasshouse located at the University of Tennessee (Knoxville, TN, USA; 35.56, 83.56). Peak light intensity in this glasshouse averaged 714 μmol m^−2 s^−1 with day/night temperatures averaging 27/17 °C. Irrigation was applied daily using an overhead misting system and plants were not clipped prior to initiating this study.
Plants were allowed to acclimate to this glasshouse environment for 10 days prior to being treated with foramsulfuron (Revolver. Bayer Environmental Sciences. Research Triangle Park, NC, USA) at 29 g ha^−1, imazamox (Clearcast. BASF Corporation. Research Triangle Park, NC) at 140 g ha^−1, or simazine (Princep 4L. Syngenta Professional Products. Greensboro, NC) at 1120 g ha^−1. Per label recommendations, imazamox and simazine treatments included a non-ionic surfactant (Activator-90. Loveland Products Inc. Greeley, CO, USA) at 0.25 % v/v. All treatments were applied in an enclosed spray chamber (Generation III track sprayer. DeVries Manufacturing, Hollandale, MN, USA) using a water carrier at 215 L ha^−1 through an 8004 EVS nozzle (TeeJet, Technologies, Spraying Systems Co., Glendale Heights, IL, USA). These herbicide treatments were selected to confirm results of genetic sequencing that RP1–RP8 were resistant to sulfonylurea, imidazolinone, and photosystem II inhibiting herbicides. A non-treated control treatment was included with each resistant (RP1–RP8) and susceptible (S) plant for comparison. Herbicides were applied on 5 February 2015 when plants were at a two-to-three leaf stage, prior to annual bluegrass tiller formation.
Annual bluegrass control was visually assessed on a 0 (i.e., no control) to 100 % (i.e., complete kill) scale relative to the non-treated 28 days after treatment. After all control data had been collected, aboveground biomass was harvested from each plastic conical container at the soil line using scissors, dried at 100 °C for 3 days, and weighed.
Treatments were arranged as a 9 × 4 factorial with nine plant selections (i.e., RP1–RP8, S) and four herbicide treatments (i.e., foramsulfuron, imazamox, simazine, non-treated) in a completely randomized design with four replications and repeated in time and space during February 2015. Plants were the same age during both experimental runs.

[6] = concentration for 50 % inhibition of WT enzyme, max inhibitor concentration 1.00 × 10^−04 M, read-out: WT sensitivity [IC50]

SMILES	Resistance factor A205F [1]	Resistance factor W574L [2]	Resistance factor A205V [3]	IC50 [4, 6]	IC50 [4]	further results
COc1nc(NC(=O)NS(=O)(=O)c2ccccc2C(F)(F)F)nc(C(F)(F)F)n1 [Tritosulfuron]	5356	167	37	18.7 nM	–	–
COc1cc(OC)n2nc(S(=O)(=O)Nc3c(Cl)ccc(C)c3Cl)nc2n1 [Metosulam]	1656	107	34	–	0.441 nM	–
COc1cc(OC)nc(Oc2cccc(Oc3nc(OC)cc(OC)n3)c2C(=O)O)n1 [Bispyribac]	7	7944	11	1.58 nM	–	–
COc1nn(C(=O)NS(=O)(=O)c2c(C(=O)O)csc2C)c(=O)n1C [Thiencarbazone]	62	16	8	24.8 nM	–	–
COc1cc(OC)nc(Sc2cccc(Cl)c2C(=O)O)n1 [Pyrithiobac]	306	134,838	433	–	0.742 nM	–
CCCOc1nn(C(=O)[N-]S(=O)(=O)c2ccccc2C(=O)OC)c(=O)n1C.[Na+] [Propoxycarbazone]	1185	309	20	–	–	–
COc1cc(OC)nc(NC(=O)NS(=O)(=O)c2cc(CNS(C)(=O)=O)ccc2C(=O)O)n1 [Mesosulfuron]	293	104	16	1.33 nM	–	–
COc1nn(C(=O)NS(=O)(=O)c2ccccc2OC(F)(F)F)c(=O)n1C [Flucarbazone]	441	7	2	24.5 nM	–	–
COc1ncc(F)c2nc(S(=O)(=O)Nc3c(F)cccc3F)nn12 [Florasulam]	1	370	89	3.43 nM	–	–
COc1cc(OC)nc(NC(=O)NS(=O)(=O)c2ncccc2C(=O)N(C)C)n1 [Nicosulfuron]	1401	35	30	–	71.4 nM	–
COc1cc(OC)nc(Sc2cccc3c2C(=O)OC3C)n1 (centres unmarked) [Pyriftalid]	5	5	5	20000 nM	–	–
COCc1cnc(C2=NC(C)(C(C)C)C(=O)N2)c(C(=O)O)c1 (centres unmarked) [Imazamox]	–	34	34	–	2930 nM	annual bluegrass control, resistant plants with the exception of RP6 ([5]; 28 days after treatment, summary over RP1–RP5, RP7, RP8): ≤ 11%; Annual bluegrass biomass RP1 ([5]; RP1, aboveground dry biomass 28 days after treatment, foramsulfuron 29, imazamox 140, simazine 1120 g ha^-1): 84 % of nontreated control; Annual bluegrass control RP1 ([5]; RP1 plants, 28 days after treatment, 2 to 3 leaf stage, foramsulfuron 29, imazamox 140, simazine 1120 g ha^−1): 2%; Annual bluegrass biomass RP2 ([5]; RP2, aboveground dry biomass 28 days after treatment, foramsulfuron 29, imazamox 140, simazine 1120 g ha^-1): 66 % of nontreated control; Annual bluegrass control RP2 ([5]; RP2 plants, 28 days after treatment, 2 to 3 leaf stage, foramsulfuron 29, imazamox 140, simazine 1120 g ha^−1): 0%; Annual bluegrass biomass RP3 ([5]; RP3, aboveground dry biomass 28 days after treatment, foramsulfuron 29, imazamox 140, simazine 1120 g ha^-1): 94 % of nontreated control; Annual bluegrass control RP3 ([5]; RP3 plants, 28 days after treatment, 2 to 3 leaf stage, foramsulfuron 29, imazamox 140, simazine 1120 g ha^−1): 0%; Annual bluegrass biomass RP4 ([5]; RP4, aboveground dry biomass 28 days after treatment, foramsulfuron 29, imazamox 140, simazine 1120 g ha^-1): 55 % of nontreated control; Annual bluegrass control RP4 ([5]; RP4 plants, 28 days after treatment, 2 to 3 leaf stage, foramsulfuron 29, imazamox 140, simazine 1120 g ha^−1): 0%; Annual bluegrass biomass RP5 ([5]; RP5, aboveground dry biomass 28 days after treatment, foramsulfuron 29, imazamox 140, simazine 1120 g ha^-1): 49 % of nontreated control; Annual bluegrass control RP5 ([5]; RP5 plants, 28 days after treatment, 2 to 3 leaf stage, foramsulfuron 29, imazamox 140, simazine 1120 g ha^−1): 3%; Annual bluegrass biomass RP6 ([5]; RP6, aboveground dry biomass 28 days after treatment, foramsulfuron 29, imazamox 140, simazine 1120 g ha^-1): 70 % of nontreated control; Annual bluegrass control RP6 ([5]; RP6 plants, 28 days after treatment, 2 to 3 leaf stage, foramsulfuron 29, imazamox 140, simazine 1120 g ha^−1): 16%; Annual bluegrass biomass RP7 ([5]; RP7, aboveground dry biomass 28 days after treatment, foramsulfuron 29, imazamox 140, simazine 1120 g ha^-1): 87 % of nontreated control; Annual bluegrass control RP7 ([5]; RP7 plants, 28 days after treatment, 2 to 3 leaf stage, foramsulfuron 29, imazamox 140, simazine 1120 g ha^−1): 4%; Annual bluegrass biomass RP8 ([5]; RP8, aboveground dry biomass 28 days after treatment, foramsulfuron 29, imazamox 140, simazine 1120 g ha^-1): 86 % of nontreated control; Annual bluegrass control RP8 ([5]; RP8 plants, 28 days after treatment, 2 to 3 leaf stage, foramsulfuron 29, imazamox 140, simazine 1120 g ha^−1): 0%; Annual bluegrass control S ([5]; susceptible (S) plants, 28 days after treatment, 2 to 3 leaf stage, foramsulfuron 29, imazamox 140, simazine 1120 g ha^−1): 93%; Annual bluegrass biomass S ([5]; susceptible (S), aboveground dry biomass 28 days after treatment, foramsulfuron 29, imazamox 140, simazine 1120 g ha^-1): 3 % of nontreated control
